Experimental data published in ChEMBL document CHEMBL4138105, “LL-37-derived short antimicrobial peptide KR-12-a5 and its d-amino acid substituted analogs with cell selectivity, anti-biofilm activity, synergistic effect with conventional antibiotics, and anti-inflammatory activity” (Eur J Med Chem, 2017).
Values after ≈ are worked out from the molar mass of the structure shown. Active and inactive are the calls of the source. The calls are words filed in the database; no cut-off is given here.

What was measured:
[1] = test system: Enterococcus faecium; assay: Antibacterial activity against Vancomycin-resistant Enterococcus faecium ATCC 51559 after 24 hrs; format: functional; conditions: ATCC 51559, 24 h
[2] = test system: Staphylococcus aureus; assay: Antibacterial activity against Staphylococcus aureus KCTC 1621 assessed as cell membrane disruption at 2 times MIC within 4 mins by Sytox Green dye based fluorescence spectrophotometer assay; format: functional, organism-based
[3] = test system: Staphylococcus aureus; assay: Antibacterial activity against Staphylococcus aureus KCTC 1621 assessed as cytoplasmic membrane depolarization at 2 times MIC by disC3-5 dye based fluorescence assay; format: functional, organism-based

`CC[C@H](C)[C@H](NC(=O)CN)C(=O)NCC(=O)N[C@@H](C)C(=O)N[C@H](C(=O)N[C@@H](CC(C)C)C(=O)N[C@@H](CCCCN)C(=O)N[C@H](C(=O)N[C@@H](CC(C)C)C(=O)N[C@H](C(=O)N[C@H](C(=O)NCC(=O)N[C@@H](CC(C)C)C(=O)N1CCC[C@H]1C(=O)N[C@@H](C)C(=O)N[C@@H](CC(C)C)C(=O)N[C@H](C(=O)N[C@@H](CO)C(=O)N[C@@H](Cc1c[nH]c2ccccc12)C(=O)N[C@H](C(=O)N[C@@H](CCCCN)C(=O)N[C@@H](CCCNC(=N)N)C(=O)N[C@@H](CCCCN)C(=O)N[C@@H](CCCNC(=N)N)C(=O)N[C@@H](CCC(N)=O)C(=O)N[C@@H](CCC(N)=O)C(N)=O)[C@@H](C)CC)[C@@H](C)CC)[C@@H](C)O)[C@@H](C)O)C(C)C)C(C)C` [MELITTIN] was tested, and the MIC [1] was 16 µM (≈ 45.5 µg/mL), the Activity [2] was “Active” and the Activity [3] was “Active”.
